The values that follow come from patent US20220233684A1, “COMBINATION OF HEPATITIS B VIRUS (HBV) VACCINES AND PD-L1 INHIBITORS” (Janssen Sciences Ireland Unlimited Company, priority 2019, published 2022).

By IC50 is commonly meant the concentration that inhibits the measured activity by half.

PD-1/PD-L1, sequence (Q9NZQ7 19-238 limits assumed): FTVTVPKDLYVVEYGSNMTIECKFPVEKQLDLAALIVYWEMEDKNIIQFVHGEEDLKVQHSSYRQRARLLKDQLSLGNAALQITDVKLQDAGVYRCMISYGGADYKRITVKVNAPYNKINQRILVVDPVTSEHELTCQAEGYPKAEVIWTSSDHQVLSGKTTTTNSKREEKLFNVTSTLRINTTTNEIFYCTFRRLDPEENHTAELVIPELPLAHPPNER

This assay concerns the target PD-1/PD-L1 (Homo sapiens, UniProt Q9NZQ7). In words: PD-1/PD-L1 biochemical protein-protein interaction assay (ALPHA). The assay is classed as binding. As to conditions: 5 nM His tagged PD-L1, 5 nM biotinylated PD-1, 2 hours at 25° C.; read-out: ALPHA-LISA IC50. The protocol: Compounds were tested in protein-protein interaction assay to determine if they can specifically block the interaction between the extracellular domains of PD-1/PD-L1. Binding of the protein pairs is measured using a bead based amplified luminescent proximity homogeneous assay (ALPHA) platform. Binding of each protein pair results in proximity of the donor and acceptor beads which leads to an increase in ALPHA signal. Assays are performed in 50 mM Tris (pH 7.4), 0.0015% Triton X-100, 0.1% BSA. Final protein concentration in the assays were 5 nM (His tagged PD-L1), 5 nM (biotinylated PD-1), 10 μg/ml ALPHA assay acceptor beads, 10 μg/ml ALPHA assay donor beads. After an assay reaction time of 2 hours at 25° C., binding was measured. The specificity of the binding was determined by testing the compounds in an assay with an irrelevant protein that is both His tagged and biotinylated. The final protein concentration used in the assay was 5 nM, 10 μg/ml ALPHA assay acceptor beads, 10 μg/ml ALPHA assay donor beads. After an assay reaction time of 2 hours at 25° C., binding was measured. IC50 values were calculated from the fit of the dose-response curves to a four-parameter equation.
The specificity of the binding was determined by testing the compounds in an assay with an irrelevant protein that is both His tagged and biotinylated (ErbB3/her3). The final protein concentration used in the assay was 5 nM, 10 μg/mL ALPHA assay acceptor beads, 10 μg/mL ALPHA assay donor beads. After an assay reaction time of 2 hours at 25° C., binding was measured. IC50 values were calculated from the fit of the dose-response curves to a four-parameter equation.
(Bead proximity is the source of the signal in Alpha formats.)
In the case of `CCc1cc(CN[C@H](CO)C(=O)O)c(OCc2cccc(C#N)c2)cc1OCc1cccn(-c2ccc3c(c2)OCCO3)c1=O` [Compound 203], the half-maximal inhibitory concentration (IC50) was 2700 nM.

For `Cc1cc(CN[C@H](CO)C(=O)O)c(OCc2cccc(Cl)c2)cc1OCc1cccn(-c2ccc3c(c2)OCCO3)c1=O` [Compound 101, (2-((3-chlorobenzyl)oxy)-4-((1-(2,3-dihydrobenzo[b][1,4]dioxin-6-yl)-2-oxo-1,2-dihydropyridin-3-yl)methoxy)-5-methylbenzyl)-D-serine], the IC50 is 3000 nM.

On to `N#Cc1cncc(COc2cc(OCc3cccn(-c4ccc5c(c4)OCCO5)c3=O)c(Cl)cc2CN[C@H](CO)C(=O)O)c1` [Compound 207, (5-chloro-2-((5-cyanopyridin-3-yl)methoxy)-4-((1-(2,3-dihydrobenzo[b][1,4]dioxin-6-yl)-2-oxo-1,2-dihydropyridin-3-yl)methoxy)benzyl)-D-serine], for which the IC50 came out at 320 nM.

As to `Cc1cc(CN[C@@H](C)C(=O)O)c(OCc2cccc(C#N)c2)cc1OCc1cccn(-c2ccc3c(c2)OCCO3)c1=O` [Compound 11], the half-inhibitory concentration (IC50) stood at 3900 nM.

Take `Cc1cc(CN2C[C@H](O)C[C@@H]2C(=O)O)c(OCc2cccc(C#N)c2)cc1OCc1cccn(-c2ccc3c(c2)OCCO3)c1=O` [Compound 8, (2R,4R)-1-(2-((3-cyanobenzyl)oxy)-4-((1-(2,3-dihydrobenzo[b][1,4]dioxin-6-yl)-2-oxo-1,2-dihydropyridin-3-yl)methoxy)-5-methylbenzyl)-4-hydroxypyrrolidine-2-carboxylic acid]: the half-inhibitory concentration (IC50) was 3400 nM. In the case of `N#Cc1cccc(COc2cc(OCc3cccn(-c4ccc5c(c4)OCCO5)c3=O)c(Cl)cc2CN[C@H](CO)C(=O)O)c1` [Compound 202, (5-chloro-2-((3-cyanobenzyl)oxy)-4-((1-(2,3-dihydrobenzo[b][1,4]dioxin-6-yl)-2-oxo-1,2-dihydropyridin-3-yl)methoxy)benzyl)-D-serine], the half-maximal inhibitory concentration (IC50) turned out to be 300 nM. `CC(C)c1cc(CN[C@H](CO)C(=O)O)c(OCc2cccc(C#N)c2)cc1OCc1cccn(-c2ccc3c(c2)OCCO3)c1=O` [Compound 204]: the IC50 was 3600 nM. As for `Cc1cc(CN[C@](C)(CO)C(=O)O)c(OCc2cccc(C#N)c2)cc1OCc1cccn(-c2ccc3c(c2)OCCO3)c1=O` [Compound 9, (R)-2-((2-((3-cyanobenzyl)oxy)-4-((1-(2,3-dihydrobenzo[b][1,4]dioxin-6-yl)-2-oxo-1,2-dihydropyridin-3-yl)methoxy)-5-methylbenzyl)amino)-3-hydroxy-2-methylpropanoic acid], the concentration for half-maximal inhibition (IC50) stood at 1200 nM. Regarding `Cc1cc(CN(C)[C@@H](CO)C(=O)O)c(OCc2cccc(C#N)c2)cc1OCc1cccn(-c2ccc3c(c2)OCCO3)c1=O` [Compound 12], the 50% inhibitory concentration (IC50) turned out to be 1600 nM.

Turning to `Cc1cc(CN[C@H](CO)C(=O)O)c(OCc2cccc(C#N)c2)cc1OCc1cccn(-c2ccc3c(c2)OCCO3)c1=O` [Compound 7, (2-((3-cyanobenzyl)oxy)-4-((1-(2,3-dihydrobenzo[b][1,4]dioxin-6-yl)-2-oxo-1,2-dihydropyridin-3-yl)methoxy)-5-methylbenzyl)-D-serine], the IC50 came to 1100 nM. On to `N#Cc1cccc(COc2cc(OCc3cccn(-c4ccc5c(c4)OCCO5)c3=O)c(Cl)cc2CNC[C@@H]2CCC(=O)N2)c1` [Compound 205, (S)-3-((4-chloro-5-((1-(2,3-dihydrobenzo[b][1,4]dioxin-6-yl)-2-oxo-1,2-dihydropyridin-3-yl)methoxy)-2-((((5-oxopyrrolidin-2-yl)methyl)amino)methyl)phenoxy)methyl)benzonitrile], for which the IC50 is 360 nM. The value for `Cc1cc(CN[C@H](CO)C(=O)O)c(OCc2cccnc2)cc1OCc1cccn(-c2ccc3c(c2)OCCO3)c1=O` [Compound 103, (4-((1-(2,3-dihydrobenzo[b][1,4]dioxin-6-yl)-2-oxo-1,2-dihydropyridin-3-yl)methoxy)-5-methyl-2-(pyridin-3-ylmethoxy)benzyl)-D-serine] was 1000 nM; that for `Cc1cc(CN[C@@H](CO)C(=O)O)c(OCc2cccc(C#N)c2)cc1OCc1cccn(-c2ccc3c(c2)OCCO3)c1=O` [Compound 10, (2-((3-cyanobenzyl)oxy)-4-((1-(2,3-dihydrobenzo[b][1,4]dioxin-6-yl)-2-oxo-1,2-dihydropyridin-3-yl)methoxy)-5-methylbenzyl)-L-serine] was 1200 nM. As for `O=C(O)[C@@H](CO)NCc1cc(Cl)c(OCc2cccn(-c3ccc4c(c3)OCCO4)c2=O)cc1OCc1cncc(-n2ccnn2)c1` [Compound 209], the IC50 is 550 nM.
